A short description of data set [1]: Stability in human liver microsomes assessed as parent compound remaining level at 2 uM in presence of NADPH incubated for 30 mins by LC-MS/MS method. It counts as ADME, microsome. The note with it: read-out: Stability. Background: Liver microsomes are vesicles of endoplasmic reticulum, rich in cytochrome P450 enzymes.
A further data set concerns the target D(2) dopamine receptor (Homo sapiens, UniProt P14416). Briefly: Antagonistic activity at human dopamine D2 receptor measured after 60 mins by Lance Ultra cAMP assay. It counts as functional. A general note: Cyclic AMP is a second messenger, typically raised through Gs and lowered through Gi signalling.
The target of data set [2] is 5-hydroxytryptamine receptor 2A (Homo sapiens, UniProt P28223). Briefly: Antagonistic activity at human 5-HT2A receptor assessed as calcium flux after 10 mins by FLIPR assay. Format: functional. (Calcium assays in cells follow changes in intracellular calcium, usually with a dye or a luminescent sensor.)
Data set [3] has as its target T1, 5-hydroxytryptamine receptor 1A (Homo sapiens, UniProt P08908).
T1 sequence (P08908 whole entry): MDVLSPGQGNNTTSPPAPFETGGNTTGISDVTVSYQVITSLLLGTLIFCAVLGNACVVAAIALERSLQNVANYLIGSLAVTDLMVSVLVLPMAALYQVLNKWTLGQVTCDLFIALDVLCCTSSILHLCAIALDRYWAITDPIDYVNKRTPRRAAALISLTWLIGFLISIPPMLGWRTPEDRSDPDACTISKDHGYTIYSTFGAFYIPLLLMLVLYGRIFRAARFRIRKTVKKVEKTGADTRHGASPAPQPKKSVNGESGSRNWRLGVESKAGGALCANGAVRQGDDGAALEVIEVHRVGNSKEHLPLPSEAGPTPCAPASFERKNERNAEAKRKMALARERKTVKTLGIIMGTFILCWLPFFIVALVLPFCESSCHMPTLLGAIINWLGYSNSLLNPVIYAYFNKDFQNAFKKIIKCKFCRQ
Put plainly: Agonistic activity at human 5-HT1A receptor measured after 60 mins by Ultra Lance cAMP assay. Format: functional.

Data set [4] has as its system Mus musculus. Briefly: Antipsychotic-like activity in ICR mouse assessed as inhibition of PCP-induced hyperlocomotion at 3 mg/kg, ig followed by animal habituation for 10 mins before 60 mins measurement period. It counts as functional, organism-based.
Another data set concerns the target Histamine H1 receptor (Homo sapiens, UniProt P35367). Put plainly: Antagonistic activity at histamine 1 receptor (unknown origin) after 10 mins by FLIPR assay. Format: functional.
For data set [5], the system named is Mus musculus. Put plainly: Antipsychotic-like activity in ICR mouse assessed as inhibition of PCP-induced hyperlocomotion at 0.3 to 3 mg/kg, ig followed by animal habituation for 10 mins before 60 mins measurement period. It counts as functional, organism-based.
For data set [6], the target named is T2, 5-hydroxytryptamine receptor 2C (Homo sapiens, UniProt P28335).
T2 sequence (P28335 whole entry): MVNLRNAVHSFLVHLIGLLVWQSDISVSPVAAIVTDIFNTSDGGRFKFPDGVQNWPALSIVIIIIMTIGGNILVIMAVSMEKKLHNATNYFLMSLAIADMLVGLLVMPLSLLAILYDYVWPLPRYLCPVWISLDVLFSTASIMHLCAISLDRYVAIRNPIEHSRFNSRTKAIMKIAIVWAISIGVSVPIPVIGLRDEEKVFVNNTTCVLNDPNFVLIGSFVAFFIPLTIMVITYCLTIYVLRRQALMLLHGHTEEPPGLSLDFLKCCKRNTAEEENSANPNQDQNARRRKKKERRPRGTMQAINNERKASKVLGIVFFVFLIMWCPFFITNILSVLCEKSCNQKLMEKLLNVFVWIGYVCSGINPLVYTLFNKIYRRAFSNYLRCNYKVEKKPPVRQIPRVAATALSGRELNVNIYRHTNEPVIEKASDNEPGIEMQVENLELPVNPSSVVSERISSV
Put plainly: Antagonistic activity at 5-HT2c receptor (unknown origin) after 10 mins by FLIPR assay. Format: functional.

The target of data set [7] is T3, Alpha-1A adrenergic receptor (Homo sapiens, UniProt P35348).
T3 sequence (P35348 whole entry): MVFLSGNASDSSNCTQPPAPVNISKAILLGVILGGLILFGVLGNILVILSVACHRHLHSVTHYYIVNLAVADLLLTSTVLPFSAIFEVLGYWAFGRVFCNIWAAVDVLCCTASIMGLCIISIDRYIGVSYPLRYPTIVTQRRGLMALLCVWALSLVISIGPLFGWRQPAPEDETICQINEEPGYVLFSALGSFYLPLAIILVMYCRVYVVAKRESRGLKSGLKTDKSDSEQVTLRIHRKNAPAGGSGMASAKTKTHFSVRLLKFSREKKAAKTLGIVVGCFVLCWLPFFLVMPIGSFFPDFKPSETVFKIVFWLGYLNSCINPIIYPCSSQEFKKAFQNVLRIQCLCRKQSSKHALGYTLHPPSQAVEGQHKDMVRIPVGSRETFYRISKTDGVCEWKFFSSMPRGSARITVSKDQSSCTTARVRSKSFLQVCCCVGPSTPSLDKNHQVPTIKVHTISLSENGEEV
Put plainly: Antagonistic activity at alpha-1A adrenergic receptor (unknown origin) after 10 mins by FLIPR assay. Format: functional.

Calls of active or inactive are those of the source. No cut-off for these calls is given here.

As a reminder, the IC50 is the concentration that inhibits the measured activity by half. The term EC50 denotes the midpoint of the concentration-response curve.

Chain of Histamine H1 receptor (P35367 whole entry): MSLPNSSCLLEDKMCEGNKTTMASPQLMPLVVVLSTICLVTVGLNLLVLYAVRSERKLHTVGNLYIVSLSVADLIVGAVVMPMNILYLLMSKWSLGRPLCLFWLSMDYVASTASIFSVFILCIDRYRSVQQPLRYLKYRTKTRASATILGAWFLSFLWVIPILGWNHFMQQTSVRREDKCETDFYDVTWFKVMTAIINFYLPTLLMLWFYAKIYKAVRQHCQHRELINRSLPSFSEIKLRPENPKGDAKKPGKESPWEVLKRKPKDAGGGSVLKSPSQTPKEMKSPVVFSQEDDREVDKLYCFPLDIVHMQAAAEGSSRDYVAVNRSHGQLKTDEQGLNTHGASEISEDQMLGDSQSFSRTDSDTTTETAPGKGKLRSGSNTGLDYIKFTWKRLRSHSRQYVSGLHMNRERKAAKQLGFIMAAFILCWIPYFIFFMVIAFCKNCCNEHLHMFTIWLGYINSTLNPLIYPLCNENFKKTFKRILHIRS
Chain of D(2) dopamine receptor (P14416 whole entry): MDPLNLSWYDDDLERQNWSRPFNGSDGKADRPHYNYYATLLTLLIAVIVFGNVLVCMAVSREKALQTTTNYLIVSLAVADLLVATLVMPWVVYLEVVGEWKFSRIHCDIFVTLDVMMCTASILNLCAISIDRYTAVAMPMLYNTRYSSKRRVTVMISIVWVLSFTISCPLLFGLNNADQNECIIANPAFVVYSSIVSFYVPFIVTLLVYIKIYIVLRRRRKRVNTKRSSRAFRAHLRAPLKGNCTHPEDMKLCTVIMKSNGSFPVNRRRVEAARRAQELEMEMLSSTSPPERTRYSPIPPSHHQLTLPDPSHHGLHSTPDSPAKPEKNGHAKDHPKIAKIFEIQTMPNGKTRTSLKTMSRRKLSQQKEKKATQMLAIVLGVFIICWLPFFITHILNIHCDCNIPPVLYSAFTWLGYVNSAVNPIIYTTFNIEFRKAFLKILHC
Chain of 5-hydroxytryptamine receptor 2A (P28223 whole entry): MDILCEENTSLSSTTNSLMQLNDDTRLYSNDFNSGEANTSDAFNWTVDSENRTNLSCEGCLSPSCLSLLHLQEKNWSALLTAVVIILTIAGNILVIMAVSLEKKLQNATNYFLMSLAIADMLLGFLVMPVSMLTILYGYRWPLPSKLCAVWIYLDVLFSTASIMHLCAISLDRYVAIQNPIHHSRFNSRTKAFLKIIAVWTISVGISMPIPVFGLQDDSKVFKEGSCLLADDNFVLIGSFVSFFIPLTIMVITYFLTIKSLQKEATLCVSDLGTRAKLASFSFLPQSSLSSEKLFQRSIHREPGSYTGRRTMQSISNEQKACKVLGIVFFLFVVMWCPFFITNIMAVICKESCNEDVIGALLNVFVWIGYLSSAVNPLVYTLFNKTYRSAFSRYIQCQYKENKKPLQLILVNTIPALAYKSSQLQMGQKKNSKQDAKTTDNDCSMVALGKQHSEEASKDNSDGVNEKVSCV

In the case of `CNC(=O)c1cccc(OCCCCN2CCC(c3noc4cc(F)ccc34)CC2)c1`, the remaining at 0.5 h, 2 µM in data set [1] was 97%.
In the case of `O=C(NC1CC1)c1cncc(OCCCCN2CCC(c3noc4cc(F)ccc34)CC2)c1`, the IC50 at D(2) dopamine receptor was 42.5 nM; in data set [2] it was 89.9 nM. This compound also had an EC50 in data set [3] above 100000 nM.
On the same counts, the results for `NC(=O)c1cc(OCCCCN2CCN(c3nsc4ccccc34)CC2)ccn1` are 42.6 nM, 523 nM and 16.5 nM.
On the same counts, the results for `O=C(NC1CC1)c1ccnc(OCCCCN2CCC(c3noc4cc(F)ccc34)CC2)c1` are 51.7 nM, 53.9 nM and above 100000 nM.
On the same counts, the results for `CNC(=O)c1cccc(OCCCCN2CCN(c3ccc4ccsc4c3)CC2)n1` are 412 nM, 1280 nM and 117 nM.
For the compound `CCNC(=O)c1cc(OCCCCN2CCC(c3noc4cc(F)ccc34)CC2)ccn1`, the IC50 against D(2) dopamine receptor is 37.6 nM; in data set [2], 95.5 nM. Also, the EC50 in data set [3] is 17.6 nM.
On the same counts, the results for `O=C(NC1CC1)c1cc(OCCCCN2CCC(c3noc4cc(F)ccc34)CC2)ccn1` are 53.5 nM, 167 nM and 28.1 nM.
On the same counts, the results for `CNC(=O)c1cncc(OCCCCN2CCC(c3noc4cc(F)ccc34)CC2)c1` are 123 nM, 83.2 nM and above 100000 nM.
Taken in the same sequence, the figures for `CCNC(=O)c1cncc(OCCCCN2CCC(c3noc4cc(F)ccc34)CC2)c1` were 59 nM, 94.2 nM and above 100000 nM.
As to `O=C1CCc2ccc(OCCCCN3CCN(c4cccc(Cl)c4Cl)CC3)cc2N1`, the result in the data set with Mus musculus [4] was Active.
For the compound `O=C(NC1CC1)c1cc(OCCCCN2CCN(c3nsc4ccccc34)CC2)ccn1`, the IC50 came to 65.2 nM at D(2) dopamine receptor and 324 nM in [2]. Besides, in [3], the EC50 came to 6.2 nM.
On the same counts, the results for `CNC(=O)c1ccnc(OCCCCN2CCC(c3noc4cc(F)ccc34)CC2)c1` are 299 nM, 62.4 nM and above 100000 nM.
For the compound `CNC(=O)c1cc(OCCCCN2CCN(c3cccc4sccc34)CC2)ccn1`, the IC50 against Histamine H1 receptor turned out to be 418 nM; in data set [6] it was 346 nM; against D(2) dopamine receptor, 24 nM; in data set [7] it was 164 nM; in [2], 154 nM. For the same compound, the result with Mus musculus [4] was Active. Further, in the data set on Mus musculus [5], the Activity result is “Dose-dependent effect”. In data set [3], this compound had an EC50 of 1.2 nM. The remaining at 0.5 h, 2 µM in data set [1] was 65%.
With `CNC(=O)c1cc(OCCCCN2CCN(c3nsc4ccccc34)CC2)ccn1`, the IC50 turned out to be 923 nM against Histamine H1 receptor; 70 nM in data set [6]; 11.4 nM against D(2) dopamine receptor; 71 nM in data set [7]; 113 nM in [2]. This compound also yielded a 50% effective concentration (EC50) in [3] of 2.2 nM. In addition, the remaining at 0.5 h, 2 µM in data set [1] was determined as 65%.
As for `CNC(=O)c1cc(OCCCCN2CCN(c3cccc4sc(F)cc34)CC2)ccn1`, the IC50 against D(2) dopamine receptor stood at 8 nM; in data set [2], 64.9 nM. Further, the midpoint of the response in [3], the EC50, lay at 0.7 nM.
As for `CNC(=O)c1cccc(OCCCCN2CCN(c3nsc4ccccc34)CC2)c1`, the remaining at 0.5 h, 2 µM in data set [1] is 25%.
Regarding `CCNC(=O)c1ccnc(OCCCCN2CCC(c3noc4cc(F)ccc34)CC2)c1`, the IC50 on D(2) dopamine receptor is 65.5 nM; in data set [2] it was 67.5 nM. In data set [3], this compound returned an EC50 above 100000 nM.
On the same counts, the results for `CNC(=O)c1cccc(OCCCCN2CCN(c3cccc4sccc34)CC2)n1` are 86.1 nM, 106 nM and 11.3 nM.
On the same counts, the results for `CNC(=O)c1cccc(OCCCCN2CCN(c3cccc(Cl)c3Cl)CC2)n1` are 51.1 nM, 910 nM and 23.6 nM.
On to `CNC(=O)c1cc(OCCCCN2CCC(c3noc4cc(F)ccc34)CC2)ccn1`, for which the IC50 on Histamine H1 receptor was determined as 4420 nM; in data set [6], 63 nM; at D(2) dopamine receptor, 59.8 nM; in data set [7] it was 11 nM; in [2] it was 247 nM. Also, in data set [3], the midpoint of the response, the EC50, lay at 9 nM. Further, the remaining at 0.5 h, 2 µM in [1] amounted to 98%.
As to `CNC(=O)c1cccc(OCCCCN2CCC(c3noc4cc(F)ccc34)CC2)n1`, the values for the IC50 (at D(2) dopamine receptor; in data set [2]) were 9.3 nM and 134 nM, respectively. This compound also gave an EC50 in data set [3] above 100000 nM.
On the same counts, the results for `CNC(=O)c1cc(OCCCCN2CCN(c3cccc(Cl)c3Cl)CC2)ccn1` are 26.5 nM, 476 nM and 0.9 nM.

These data come from ChEMBL document CHEMBL4184238, “Synthesis and biological evaluation of a series of novel pyridinecarboxamides as potential multi-receptor antipsychotic drugs” (Bioorg Med Chem Lett, 2018).
